# Source: patent EP4782445A1, “CDK KINASE INHIBITOR AND USE THEREOF” (Abbisko Therapeutics Co., Ltd., priority 2023, dated 2025)
# Legend:
# CDK4/cyclin D3 = molecular target: T1, CDK4/cyclin D3 (Homo sapiens, UniProt P11802); assay: In vitro biochemical kinase activity assay for CDK4/cyclin D3 (HTRF)
# T1 construct: purchased Carna
# Experimental: II. In Vitro Biochemical Kinase Activity Assay for CDK4/Cyclin D3
# The inhibitory effects of the compounds of the present invention on CDK4/cyclin D3 kinase activity were determined using an HTRF assay. The experimental process was as follows: • 1. The kinase reaction was carried out in a 384-well plate. 4.9 nM CDK4/cyclin D3 (Carna), 1 mM (or 80 µM) ATP, and 0.3 µM biotin-labeled substrate protein Rb-biotin (Cisbio) were incubated at 30°C for 90 min in a buffer system composed of 50 mM MgCl2, 1 mM DTT, and basal kinase buffer (Cisbio). • 2. The detection solution (Cisbio, containing reagents that specifically recognize phosphorylated Rb and Rb-biotin proteins, respectively) was added. The plate was then sealed with a film (to protect from light and volatilization) and incubated at 25°C for 60 min. • 3. The plate was transferred to an Envision plate reader to detect FRET signals. (The 665/615 ratio was calculated by reading the emission at 665 nm and 615 nM, respectively.) • 4. The IC50 values were determined by analyzing the inhibition at varying compound concentrations using Model 205 in the XLfit software.
# CDK6/cyclin D3 = molecular target: T2, CDK6/cyclin D3 (Homo sapiens, UniProt Q00534); assay: In vitro biochemical kinase activity assay for CDK6/cyclin D3 (HTRF)
# T2 construct: purchased Carna
# Experimental: III. In Vitro Biochemical Kinase Activity Assay for CDK6/Cyclin D3
# The inhibitory effects of the compounds of the present invention on CDK6/cyclin D3 kinase activity were determined using an HTRF assay. The experimental process was as follows: 1. The kinase reaction was carried out in a 384-well plate. 0.02 nM CDK6/cyclin D3 (Carna), 1 mM (or 100 µM) ATP, and 0.3 µM biotin-labeled substrate protein Rb-biotin (Cisbio) were incubated at 30°C for 60 min in a buffer system composed of 5 mM MgCl2, 1 mM DTT, and basal kinase buffer (Cisbio). 2. The detection solution (Cisbio, containing reagents that specifically recognize phosphorylated Rb and Rb-biotin proteins, respectively) was added. The plate was then sealed with a film (to protect from light and volatilization) and incubated at 25°C for 60 min. 3. The plate was transferred to an Envision plate reader to detect FRET signals. (The 665/615 ratio was calculated by reading the emission at 665 nm and 615 nM, respectively.) 4. The IC50 values were determined by analyzing the inhibition at varying compound concentrations using Model 205 in the XLfit software.
# [1] = data marked with *: 1 mM ATP in Step 1
# [2] = unmarked data: 80 µM ATP in Step 1
# [3] = unmarked data: 100 µM ATP in Step 1
# T1 sequence (P11802 whole entry): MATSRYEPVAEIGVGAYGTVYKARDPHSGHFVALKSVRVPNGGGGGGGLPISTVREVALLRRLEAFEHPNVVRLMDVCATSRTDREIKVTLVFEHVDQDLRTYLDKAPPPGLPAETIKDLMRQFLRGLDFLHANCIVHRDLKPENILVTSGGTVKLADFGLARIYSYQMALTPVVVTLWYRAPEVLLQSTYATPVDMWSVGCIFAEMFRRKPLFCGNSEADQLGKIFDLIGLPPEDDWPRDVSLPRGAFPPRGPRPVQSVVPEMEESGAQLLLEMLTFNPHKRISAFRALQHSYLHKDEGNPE
# T1 sequence (P30281 whole entry partner): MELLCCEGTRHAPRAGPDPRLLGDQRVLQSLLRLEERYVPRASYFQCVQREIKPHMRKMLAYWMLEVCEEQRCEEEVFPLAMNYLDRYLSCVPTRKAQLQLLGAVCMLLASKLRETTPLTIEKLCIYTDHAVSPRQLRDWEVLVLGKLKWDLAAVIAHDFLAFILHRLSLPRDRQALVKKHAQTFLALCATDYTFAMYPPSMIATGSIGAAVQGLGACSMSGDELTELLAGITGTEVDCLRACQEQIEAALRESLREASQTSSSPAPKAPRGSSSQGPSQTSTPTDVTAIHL
# T2 sequence (Q00534 whole entry): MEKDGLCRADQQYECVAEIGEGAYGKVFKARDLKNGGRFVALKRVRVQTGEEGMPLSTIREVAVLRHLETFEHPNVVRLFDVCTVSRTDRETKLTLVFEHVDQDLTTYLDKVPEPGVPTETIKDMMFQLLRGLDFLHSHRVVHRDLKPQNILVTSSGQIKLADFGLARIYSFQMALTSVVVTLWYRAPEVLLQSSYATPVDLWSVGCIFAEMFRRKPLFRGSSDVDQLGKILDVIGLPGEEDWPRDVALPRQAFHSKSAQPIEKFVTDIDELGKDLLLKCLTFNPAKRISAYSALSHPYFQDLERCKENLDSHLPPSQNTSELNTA
# T2 sequence (P30281 whole entry partner): as the sequence (P30281 whole entry partner) above
Structure (SMILES),IC50 (CDK4/cyclin D3; [1]),IC50 (CDK6/cyclin D3; [1]),IC50 (CDK4/cyclin D3; [2]),IC50 (CDK6/cyclin D3; [3])
"CC(C)c1c(C#Cc2nc(N[C@@H]3CCN(S(C)(=O)=O)C[C@H]3O)ncc2Cl)cnn1C [Example 33, (3R,4R)-4-((5-chloro-4-((5-isopropyl-1-methyl-1H-pyrazol-4-yl)ethynyl)pyrimidin-2-yl)amino)-1-(methanesulfonyl)piperidin-3-ol]",0.00135 µM,0.0103 µM,–,–
"CC(C)n1c(C#Cc2nc(N[C@@H]3CCOC[C@H]3O)ncc2Cl)cnc1CN1CC(C)(O)C1 [Example 38, 1-((5-((5-chloro-2-(((3 S,4R)-3-hydroxytetrahydro-2H-pyran-4-yl)amino)pyrimidin-4-yl)ethynyl)-1-isopropyl-1H-imidazol-2-yl)methyl)-3-methylazetidin-3-ol]",0.172 µM,2.12 µM,–,–
"CC(C)c1nn(C)cc1C#Cc1nc(N[C@@H]2CCOC[C@H]2O)ncc1Cl [Example 54, (3 S,4R)-4-((5-chloro-4-((3-isopropyl-1-methyl-1H-pyrazol-4-yl)ethynyl)pyrimidin-2-yl)amino)tetrahydro-2H-pyran-3-ol]",–,–,0.059 µM,0.164 µM
"CC(C)c1c(C#Cc2nc(Nc3ccc(C4CCN(C)CC4)cn3)ncc2F)cnn1C [Example 59, 5-fluoro-4-((5-isopropyl-1-methyl-1H-pyrazol-4-yl)ethynyl)-N-(5-(1-methylpiperidin-4-yl)pyridin-2-yl)pyrimidin-2-amine]",–,–,0.00964 µM,0.0383 µM
"CC(C)n1c(C#Cc2nc(N[C@@H]3CCNC[C@H]3O)ncc2Cl)cnc1C(C)(C)O [Example 60, (3R,4R)-4-((5-chloro-4-((2-(2-hydroxypropan-2-yl)-1-isopropyl-1H-imidazol-5-yl)ethynyl)pyrimidin-2-yl)amino)piperidin-3-ol]",–,–,0.0476 µM,0.162 µM
"CC(C)c1c(C#Cc2nc(N[C@@H]3CCOC[C@H]3O)ncc2Cl)cnn1CC(C)(C)O [Example 64, (3 S,4R)-4-((5-chloro-4-((1-(2-hydroxy-2-methylpropyl)-5-isopropyl-1H-pyrazol-4-yl)ethynyl)pyrimidin-2-yl)amino)tetrahydro-2H-pyran-3-ol]",–,–,0.0132 µM,0.132 µM
"CC(C)c1nn(CC(C)(C)O)cc1C#Cc1nc(N[C@@H]2CCOC[C@H]2O)ncc1Cl [Example 65, (3 S,4R)-4-((5-chloro-4-((1-(2-hydroxy-2-methylpropyl)-3-isopropyl-1H-pyrazol-4-yl)ethynyl)pyrimidin-2-yl)amino)tetrahydro-2H-pyran-3-ol]",–,–,0.119 µM,1.2 µM
"CC(C)n1c(C#Cc2nc(Nc3ccc(N4CCN(C)CC4)cn3)ncc2Cl)cnc1C(C)(C)O [Example 66, 2-(5-((5-chloro-2-((5-(4-methylpiperazin-1-yl)pyridin-2-yl)amino)pyrimidin-4-yl)ethynyl)-1-isopropyl-1H-imidazol-2-yl)propan-2-ol]",–,–,0.00103 µM,0.0019 µM
"CCN1CCN(C(=O)c2ccc(Nc3ncc(Cl)c(C#Cc4cnc(C(C)(C)O)n4C(C)C)n3)nc2)CC1 [Example 67, (6-((5-chloro-4-((2-(2-hydroxypropan-2-yl)-1-isopropyl-1H-imidazol-5-yl)ethynyl)pyrimidin-2-yl)amino)pyridin-3-yl)(4-ethylpiperazin-1-yl)methanone]",–,–,0.00117 µM,0.00588 µM
"CC(C)n1c(C#Cc2nc(N[C@@H]3CCOC[C@H]3O)ncc2Cl)cnc1C1CCCN1 (stereo partly drawn) [Example 68, (3 S,4R)-4-((5-chloro-4-((1-isopropyl-2-(pyrrolidin-2-yl)-1H-imidazol-5-yl)ethynyl)pyrimidin-2-yl)amino)tetrahydro-2H-pyran-3-ol]",0.0767 µM,2.6 µM,–,–
"CCN1CCN(Cc2ccc(Nc3ncc(Cl)c(C#Cc4cnn(C)c4C(C)C)n3)nc2)CC1 [Example 69, 5-Chloro-N-(5-((4-ethylpiperazin-1-yl)methyl)pyridin-2-yl)-4-((5-isopropyl-1-methyl-1H-pyrazol-4-yl)ethynyl)pyrimidin-2-amine]",0.00471 µM,0.0384 µM,–,–
"CCN1CCN(Cc2ccc(Nc3ncc(F)c(C#Cc4cnn(C)c4C(C)C)n3)nc2)CC1 [Example 70, N-(5-((4-ethylpiperazin-1-yl)methyl)pyridin-2-yl)-5-fluoro-4-((5-isopropyl-1-methyl-1H-pyrazol-4-yl)ethynyl)pyrimidin-2-amine]",0.0151 µM,0.131 µM,–,–
"CCN1CC2(C1)CN(c1ccc(Nc3ncc(Cl)c(C#Cc4cnc(C(C)(C)O)n4C(C)C)n3)nc1)C2 [Example 71, 2-(5-((5-chloro-2-((5-(6-ethyl-2,6-diazaspiro[3.3]heptan-2-yl)pyridin-2-yl)amino)pyrimidin-4-yl)ethynyl)-1-isopropyl-1H-imidazol-2-yl)propan-2-ol]",0.00252 µM,0.00631 µM,–,–
"CC(C)n1c(C#Cc2nc(N[C@@H]3CCOC[C@H]3O)ncc2Cl)cnc1CN1[C@H](C)COC[C@@H]1C [Example 72, (3S,4R)-4-((5-chloro-4-((2-(((3R,5S)-3,5-dimethylmorpholino)methyl)-1-isopropyl-1H-imidazol-5-yl)ethynyl)pyrimidin-2-yl)amino)tetrahydro-2H-pyran-3-ol]",0.017 µM,0.263 µM,–,–
"CC(C)n1c(C#Cc2nc(Nc3ccc(C4CCN(C)CC4)cn3)ncc2F)cnc1C(C)(C)O [Example 73, 2-(5-((5-fluoro-2-((5-(1-methylpiperidin-4-yl)pyridin-2-yl)amino)pyrimidin-4-yl)ethynyl)-1-isopropyl-1H-imidazol-2-yl)propan-2-ol]",0.00643 µM,0.0267 µM,–,–
"CC(C)n1c(C#Cc2nc(N[C@@H]3CCOC[C@H]3O)ncc2Cl)cnc1CN1[C@@H](C)COC[C@@H]1C [Example 74, (3 S,4R)-4-((5-chloro-4-((2-(((3 S,5 S)-3,5-dimethylmorpholino)methyl)-1-isopropyl-1H-imidazol-5-yl)ethynyl)pyrimidin-2-yl)amino)tetrahydro-2H-pyran-3-ol]",0.0201 µM,0.341 µM,–,–
"CC(C)n1c(C#Cc2nc(N[C@@H]3CCOC[C@H]3O)ncc2Cl)cnc1CN1CCC[C@H](O)C1 [Example 75, (S)-1-((5-((5-chloro-2-(((3 S,4R)-3-hydroxytetrahydro-2H-pyran-4-yl)amino)pyrimidin-4-yl)ethynyl)-1-isopropyl-1H-imidazol-2-yl)methyl)piperidin-3-ol]",0.0212 µM,1.16 µM,–,–
"CCN1CCC(c2ccc(Nc3ncc(Cl)c(C#Cc4cnc(C(C)(C)O)n4C(C)C)n3)nc2)CC1 [Example 76, 2-(5-((5-chloro-2-((5-(1-ethylpiperidin-4-yl)pyridin-2-yl)amino)pyrimidin-4-yl)ethynyl)-1-isopropyl-1H-imidazol-2-yl)propan-2-ol]",0.0029 µM,0.00653 µM,–,–
"CCN1CCN(Cc2ccc(Nc3cc(C#Cc4cnc(C(C)(C)O)n4C(C)C)c(Cl)cn3)nc2)CC1 [Example 77, 2-(5-((5-chloro-2-((5-((4-ethylpiperazin-1-yl)methyl)pyridin-2-yl)amino)pyridin-4-yl)ethynyl)-1-isopropyl-1H-imidazol-2-yl)propan-2-ol]",0.00162 µM,0.00594 µM,–,–
"CC(C)n1c(C#Cc2nc(N[C@@H]3CCOC[C@H]3O)ncc2Cl)cnc1CN1CCC[C@@H](O)C1 [Example 78, (R)-1-((5-((5-chloro-2-(((3 S,4R)-3-hydroxytetrahydro-2H-pyran-4-yl)amino)pyrimidin-4-yl)ethynyl)-1-isopropyl-1H-imidazol-2-yl)methyl)piperidin-3-ol]",0.0755 µM,0.393 µM,–,–
"CCN1CC2(C1)CN(c1ccc(Nc3ncc(F)c(C#Cc4cnn(C)c4C(C)(C)O)n3)nc1)C2 [Example 83, 2-(4-((2-((5-(6-ethyl-2,6-diazaspiro[3.3]heptan-2-yl)pyridin-2-yl)amino)-5-fluoropyrimidin-4-yl)ethynyl)-1-methyl-1H-pyrazol-5-yl)propan-2-ol]",2.86 µM,–,–,–
"CC(C)n1c(C#Cc2nc(N[C@@H]3CCC[C@@H](C(=O)N(C)C)C3)ncc2Cl)cnc1C(C)(C)O [Example 96, (1R,3R)-3-((5-chloro-4-((2-(2-hydroxypropan-2-yl)-1-isopropyl-1H-imidazol-5-yl)ethynyl)pyrimidin-2-yl)amino)-N,N-dimethylcyclohexane-1-carboxamide]",3.29 µM,–,–,–
"CC(C)n1c(C#Cc2nc(N[C@@H]3CCOC[C@H]3O)ncc2F)cnc1CN1CCC[C@H](O)C1 [Example 102, (S)-1-((5-((5-fluoro-2-(((3 S,4R)-3-hydroxytetrahydro-2H-pyran-4-yl)amino)pyrimidin-4-yl)ethynyl)-1-isopropyl-1H-imidazol-2-yl)methyl)piperidin-3-ol]",1.04 µM,–,–,–
